Reference: patent publication US20240150377A1, “MODULATORS OF CYSTIC FIBROSIS TRANSMEMBRANE CONDUCTANCE REGULATOR” (VERTEX PHARMACEUTICALS INCORPORATED, priority 2020, published 2024)
Read-outs that look alike come from different tables or passages of the source. Values belong to the molecule of their own block, whether it stands above or below them.

Target: T1, CFTR (Homo sapiens, UniProt P13569, DEL508-508)
T1 construct: endogenous in cells; host or cells: primary human bronchial epithelial cells from CF subjects (F508del/MF-HBE), differentiated at air-liquid interface
Assay: HBE assay: Ussing chamber assay of CFTR-mediated short-circuit currents
Type: cell-based
Settings: for activation at 10 µM: read-out: HBE Activity at 10 μM (%); for EC50: read-out: HBE EC50
Procedure, shortened: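 CFTR-mediated Isc (μA/cm²) equals the peak response to apical 20 μM forskolin minus the residual after a 20 μM each BPO/GlyH-101/CFTR inhibitor 172 cocktail, recorded in Ussing chambers at Vhold 0 mV, 37 °C, pH 7.4, with 30 μM apical amiloride. Cells were F508del/MF HBE cultures preincubated 18-24 h with corrector (concentration range or 10 μM) plus 1 μM ivacaftor in 20% human serum.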

[1] = Table 11, read-out: HBE Max Activity (%)
[2] = HBE assay, read-out: HBE Max activity (%)
[3] = Table 12, read-out: HBE Max Activity (%)
[4] = Table 10, read-out: HBE Max activity (%)
[5] = Table 13, read-out: HBE Max Activity (%)

T1 sequence (P13569 with tags, fused parts or gaps DEL508-508): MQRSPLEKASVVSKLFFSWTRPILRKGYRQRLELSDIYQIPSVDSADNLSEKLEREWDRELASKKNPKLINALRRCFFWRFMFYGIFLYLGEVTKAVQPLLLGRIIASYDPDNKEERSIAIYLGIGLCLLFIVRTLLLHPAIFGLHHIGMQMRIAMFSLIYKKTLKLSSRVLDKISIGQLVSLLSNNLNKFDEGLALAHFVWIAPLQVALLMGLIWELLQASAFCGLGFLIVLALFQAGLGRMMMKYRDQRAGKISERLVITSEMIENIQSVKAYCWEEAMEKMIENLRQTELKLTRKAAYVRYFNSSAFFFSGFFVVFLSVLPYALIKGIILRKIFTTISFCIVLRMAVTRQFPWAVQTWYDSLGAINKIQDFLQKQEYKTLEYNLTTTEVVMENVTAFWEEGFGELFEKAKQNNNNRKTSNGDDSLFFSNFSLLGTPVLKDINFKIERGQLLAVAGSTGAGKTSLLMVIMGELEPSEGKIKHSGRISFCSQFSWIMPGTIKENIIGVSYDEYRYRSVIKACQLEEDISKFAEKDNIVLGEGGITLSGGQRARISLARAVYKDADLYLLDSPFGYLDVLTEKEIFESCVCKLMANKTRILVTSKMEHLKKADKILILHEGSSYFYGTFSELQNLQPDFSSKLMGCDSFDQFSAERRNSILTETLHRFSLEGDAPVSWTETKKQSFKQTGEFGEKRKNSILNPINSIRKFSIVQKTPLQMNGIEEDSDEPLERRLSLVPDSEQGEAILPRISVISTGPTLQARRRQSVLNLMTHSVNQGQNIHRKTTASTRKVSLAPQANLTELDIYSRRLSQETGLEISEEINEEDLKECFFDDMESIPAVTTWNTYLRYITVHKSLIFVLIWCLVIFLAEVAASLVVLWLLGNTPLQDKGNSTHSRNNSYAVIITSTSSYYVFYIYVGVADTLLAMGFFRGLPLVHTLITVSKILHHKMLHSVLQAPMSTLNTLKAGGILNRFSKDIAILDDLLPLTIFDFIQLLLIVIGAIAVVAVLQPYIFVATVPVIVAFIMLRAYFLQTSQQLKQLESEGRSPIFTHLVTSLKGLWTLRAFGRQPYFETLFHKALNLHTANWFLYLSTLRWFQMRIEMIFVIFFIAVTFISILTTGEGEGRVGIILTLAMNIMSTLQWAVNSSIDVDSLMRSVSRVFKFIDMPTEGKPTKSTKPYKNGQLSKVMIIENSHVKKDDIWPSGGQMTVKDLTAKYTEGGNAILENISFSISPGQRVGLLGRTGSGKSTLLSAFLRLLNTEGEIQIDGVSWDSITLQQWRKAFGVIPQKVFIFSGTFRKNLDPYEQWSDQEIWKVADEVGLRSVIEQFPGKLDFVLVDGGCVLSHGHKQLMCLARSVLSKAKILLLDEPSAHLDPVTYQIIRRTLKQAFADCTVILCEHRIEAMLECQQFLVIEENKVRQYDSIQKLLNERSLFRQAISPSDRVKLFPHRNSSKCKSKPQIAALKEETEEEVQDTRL

activation at 10 µM (Table 11): > 60%
SMILES: Cc1cccc(C)c1-c1cc2nc(n1)NS(=O)(=O)c1cccc(c1)C(=O)N(CC1CC(C)(C)CO1)[C@H](CC(C)(C)C)CO2 (stereo partly drawn) [Compound 21, (11R)-12-[(4,4-Dimethyloxolan-2-yl)methyl]-6-(2,6-dimethylphenyl)-11-(2,2-dimethylpropyl)-9-oxa-2λ^6-thia-3,5,12,19-tetraazatricyclo[12.3.1.14,8]nonadeca-1(17),4(19),5,7,14(18),15-hexaene-2,2,13-trione]

EC50 (Table 11): < 1000 nM | Emax [1]: > 60%
SMILES: Cc1cccc(C)c1-c1cc2nc(n1)NS(=O)(=O)c1cccc(c1)C(=O)N(Cc1ccnc(N(C)C(C)C)n1)[C@H](CC(C)(C)C)CO2 [Compound 628]

EC50 (HBE assay): < 1000 nM | Emax [2]: > 60%
SMILES: Cc1cccc(C)c1-c1cc2nc(n1)NS(=O)(=O)c1cccc(c1)C(=O)N(Cc1ncc(OC3CC(F)(F)C3)cn1)[C@H](CC(C)(C)C)CO2 [Compound 1397]

EC50 (Table 12): < 1000 nM | Emax [3]: > 60%
SMILES: Cc1cccc(C)c1-c1cc2nc(n1)NS(=O)(=O)c1cccc(c1)C(=O)N(Cc1cccc(NC34CC(C3)C4)n1)[C@H](CC(C)(C)C)CO2 [Compound 440]

Emax [4]: > 60%
SMILES: COCCNc1cccc(CN2C(=O)c3cccc(c3)S(=O)(=O)Nc3nc(cc(-c4c(C)cccc4C)n3)OC[C@H]2CC(C)(C)C)n1 [Compound 475]

EC50 (HBE assay): < 1000 nM | Emax [2]: > 60%
SMILES: COCCN(CC(C)C)c1cncc(CN2C(=O)c3cccc(c3)S(=O)(=O)Nc3nc(cc(-c4c(C)cccc4C)n3)OC[C@H]2CC(C)(C)C)n1 [Compound 1418]

EC50 (Table 11): < 1000 nM | Emax [1]: > 60%
SMILES: Cc1cccc(C)c1-c1cc2nc(n1)NS(=O)(=O)c1cccc(c1)C(=O)N(Cc1nccc(N(C)C3CC4(CC4)C3)n1)[C@H](CC(C)(C)C)CO2 [Compound 615]

EC50 (Table 13): < 1000 nM | Emax [5]: > 60%
SMILES: Cc1cccc(C)c1-c1cc2nc(n1)NS(=O)(=O)c1cccc(c1)C(=O)N(Cc1cccc(OC(C)C)n1)[C@H](CC(C)(C)C)CO2 [Compound 370]

EC50 (Table 12): < 1000 nM | Emax [3]: > 60%
SMILES: Cc1cccc(C)c1-c1cc2nc(n1)NS(=O)(=O)c1cccc(c1)C(=O)N(Cc1cnc(OC(C)C)nc1)[C@H](CC(C)(C)C)CO2 [Compound 270]

EC50 (Table 12): < 1000 nM | Emax [3]: 30 to 60%
SMILES: Cc1cccc(C)c1-c1cc2nc(n1)NS(=O)(=O)c1cccc(c1)C(=O)N(Cc1ccc(N3CCC(C)(C)C3)nn1)[C@H](CC(C)(C)C)CO2 [Compound 238]

activation at 10 µM (Table 12): > 600%
SMILES: Cc1cccc(C)c1-c1cc2nc(n1)NS(=O)(=O)c1cccc(c1)C(=O)N(Cc1ccc(C3=CCCCC3)nn1)[C@H](CC(C)(C)C)CO2 [Compound 237]

activation at 10 µM (Table 13): > 600%
SMILES: Cc1cccc(C)c1-c1cc2nc(n1)NS(=O)(=O)c1cccc(c1)C(=O)N(Cc1ccc(C(=O)N3CCOCC3)cn1)[C@H](CC(C)(C)C)CO2 [Compound 245]

EC50 (Table 10): 3000 to 30000 nM | Emax [4]: 30 to 60%
SMILES: Cc1cccc(C)c1-c1cc2nc(n1)NS(=O)(=O)c1cccc(c1)C(=O)N(CC1CCC(NCC(=O)O)CC1)[C@H](CC(C)(C)C)CO2 (some centres unmarked) [Compound 911]

EC50 (Table 12): < 1000 nM | Emax [3]: > 60%
SMILES: Cc1cccc(C)c1-c1cc2nc(n1)NS(=O)(=O)c1cccc(c1)C(=O)N(Cc1ccc(C3CCOC3)cn1)[C@H](CC(C)(C)C)CO2 (some centres unmarked) [Compound 261]

EC50 (HBE assay): < 1000 nM | Emax [2]: > 60%
SMILES: COCCN(c1ccc(C)c(CN2C(=O)c3cccc(c3)S(=O)(=O)Nc3nc(cc(-c4c(C)cccc4C)n3)OC[C@H]2CC(C)(C)C)n1)C(C)C [Compound 1343]

EC50 (Table 12): < 1000 nM | Emax [3]: > 60%
SMILES: Cc1cccc(C)c1-c1cc2nc(n1)NS(=O)(=O)c1cccc(c1)C(=O)N(Cc1cncc(N(C)C(C)C)n1)[C@H](CC(C)(C)C)CO2 [Compound 881]

Emax [4]: > 60%
SMILES: Cc1cccc(C)c1-c1cc2nc(n1)NS(=O)(=O)c1cccc(c1)C(=O)N(Cc1cccc(NCC(C)(C)C)n1)[C@H](CC(C)(C)C)CO2 [Compound 471]

EC50 (Table 10): < 1000 nM | Emax [4]: > 60%
SMILES: Cc1cccc(C)c1-c1cc2nc(n1)NS(=O)(=O)c1cccc(c1)C(=O)N(CC1CCC(N3CCOCC3)CC1)[C@H](CC(C)(C)C)CO2 (single isomer, unassigned) [Compound 154]

activation at 10 µM (Table 13): > 600%
SMILES: Cc1cccc(C)c1-c1cc2nc(n1)NS(=O)(=O)c1cccc(c1)C(=O)N(Cc1cc3ccoc3cn1)[C@H](CC(C)(C)C)CO2 [Compound 998]

EC50 (Table 12): < 1000 nM | Emax [3]: > 60%
SMILES: Cc1cccc(C)c1-c1cc2nc(n1)NS(=O)(=O)c1cccc(c1)C(=O)N(Cc1ncc(N3CC(C)(O)C3)cn1)[C@H](CC(C)(C)C)CO2 [Compound 586]

EC50 (Table 12): < 1000 nM | Emax [3]: > 60%
SMILES: Cc1cccc(C)c1-c1cc2nc(n1)NS(=O)(=O)c1cccc(c1)C(=O)N(CC(=O)N(C)CC1CCCCC1)[C@H](CC(C)(C)C)CO2 [Compound 231]

EC50 (Table 11): < 1000 nM | Emax [1]: > 60%
SMILES: Cc1cccc(C)c1-c1cc2nc(n1)NS(=O)(=O)c1cccc(c1)C(=O)N(Cc1cccc(NC(C)C)n1)[C@H](CC(C)(C)C)CO2 [Compound 736]

EC50 (Table 13): < 1000 nM | Emax [5]: > 60%
SMILES: Cc1cccc(C)c1-c1cc2nc(n1)NS(=O)(=O)c1cccc(n1)C(=O)N(Cc1cccc(N3CCCC3C)n1)[C@H](CC(C)(C)C)CO2 (some centres unmarked) [Compound 1127]

EC50 (Table 11): < 1000 nM | Emax [1]: > 60%
SMILES: CCc1cccc(CN2C(=O)c3cccc(c3)S(=O)(=O)Nc3nc(cc(-c4c(C)cccc4C)n3)OC[C@H]2CC(C)(C)C)n1 [Compound 730]

activation at 10 µM (Table 13): > 600%
SMILES: Cc1cccc(C)c1-c1cc2nc(n1)NS(=O)(=O)c1cccc(c1)C(=O)N(CC(=O)N1CCOCC1)[C@H](CC(C)(C)C)CO2 [Compound 197]

EC50 (Table 10): < 1000 nM | Emax [4]: > 60%
SMILES: Cc1ccc2ccccc2c1-c1cc2nc(n1)NS(=O)(=O)c1cccc(c1)C(=O)N(Cc1ccc(N3CCOCC3)cn1)[C@H](CC(C)(C)C)CO2 [Compound 1075]

EC50 (HBE assay): < 1000 nM | Emax [2]: > 60%
SMILES: CC[C@@H](C)Oc1cnc(CN2C(=O)c3cccc(c3)S(=O)(=O)Nc3nc(cc(-c4c(C)cccc4C)n3)OC[C@H]2CC(C)C)nc1 [Compound 1391]

EC50 (Table 11): < 1000 nM | Emax [1]: > 60%
SMILES: Cc1cccc(C)c1-c1cc2nc(n1)NS(=O)(=O)c1cccc(c1)C(=O)N(Cc1nccc(N3CCC[C@H]3C)n1)[C@H](CC(C)(C)C)CO2 [Compound 618]

activation at 10 µM (Table 12): > 600%
SMILES: COCC(C)N(C)c1ccnc(CN2C(=O)c3cccc(c3)S(=O)(=O)Nc3nc(cc(-c4c(C)cccc4C)n3)OC[C@H]2CC(C)(C)C)n1 (some centres unmarked) [Compound 448]

EC50 (Table 11): < 1000 nM | Emax [1]: > 60%
SMILES: COCCN1CCC(CN2C(=O)c3cccc(c3)S(=O)(=O)Nc3nc(cc(-c4c(C)cccc4C)n3)OC[C@H]2CC(C)(C)C)C1=O (some centres unmarked) [Compound 639]

EC50 (Table 12): < 1000 nM
SMILES: Cc1cccc(C)c1-c1cc2nc(n1)NS(=O)(=O)c1cccc(c1)C(=O)N(Cc1cccc(N3CCCC3C(C)C)n1)[C@H](CC(C)(C)C)CO2 (some centres unmarked) [Compound 548]

EC50 (Table 11): < 1000 nM | Emax [1]: > 60%
SMILES: Cc1cccc(C)c1-c1cc2nc(n1)NS(=O)(=O)c1cccc(c1)C(=O)N(Cc1ccc(C3=CCCC3)cn1)[C@H](CC(C)(C)C)CO2 [Compound 810]

EC50 (HBE assay): < 1000 nM | Emax [2]: > 60%
SMILES: COCCOc1cnc(CN2C(=O)c3cccc(c3)S(=O)(=O)Nc3nc(cc(-c4c(C)cccc4C)n3)OC[C@H]2CC(C)(C)C)c(F)c1 [Compound 1364]

EC50 (Table 10): < 1000 nM | Emax [4]: > 60%
SMILES: Cc1cccc(C)c1-c1cc2nc(n1)NS(=O)(=O)c1cccc(c1)C(=O)N(Cc1ccc(N3CCCCC3)cn1)[C@H](CC(C)(C)C)CO2 [Compound 502]
